Data as given in publication PMC4580987, “Catalytic site inhibition of insulin-degrading enzyme by a small molecule induces glucose intolerance in mice” (Nature Communications, 2015).
pIC50: −log10 of the molar value. “Also recorded” adds a separate entry of the source.

Columns and labels:
Recombinant human MMP-1 = molecular target: T1, Recombinant human MMP-1 (Homo sapiens, UniProt P03956); assay: Matrix metalloprotease 1 inhibition (CEREP); type: biochemical; details: means of two experiments minimum, s.d.±10%; read-out: Selectivity IC50 hMMP-1
T1 construct: host or cells: E. coli
T1 sequence (P03956 100-469): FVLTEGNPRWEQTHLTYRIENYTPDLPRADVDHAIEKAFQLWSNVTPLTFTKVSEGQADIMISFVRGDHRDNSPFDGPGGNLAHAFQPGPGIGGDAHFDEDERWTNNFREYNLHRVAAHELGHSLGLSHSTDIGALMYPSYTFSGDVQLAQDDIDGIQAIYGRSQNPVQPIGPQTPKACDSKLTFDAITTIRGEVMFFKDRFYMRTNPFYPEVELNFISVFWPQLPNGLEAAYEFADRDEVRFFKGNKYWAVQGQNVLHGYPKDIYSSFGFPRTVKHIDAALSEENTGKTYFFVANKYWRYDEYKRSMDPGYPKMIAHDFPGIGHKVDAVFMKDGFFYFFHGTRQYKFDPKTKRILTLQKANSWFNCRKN
Experimental: Briefly, human NEP (R&D Systems; 200 ng ml^−1) was incubated 10 min at room temperature with compound in Hepes 50 mM, NaCl 100 mM, pH 7.4 and the enzymatic reaction started by adding the substrate (final concentration 200 μM). […] Briefly, human ACE (R&D Systems) was incubated 10 min at room temperature with compound in Tris 50 mM 1% NaCl pH 7.4 and the enzymatic reaction is started by adding the substrate (final concentration 300 μM). […] In vitro activity was assayed at CEREP.SA as follows.

Stability in rat plasma = type: in vitro ADME; details: both sexes, 37 °C, read-out: Plasma stability r (t1/2)
Experimental: (§1) Incubations were performed in duplicate in Eppendorf tubes. The plasma (mouse plasma, rat plasma (mixed gender), human (mixed gender, all lithium heparine, from Sera Laboratories International) or cell culture medium (differenciation medium: DMEM (Life Technologies, Ref 41965), 0.4 % gentamicine, 10 % FCS (Lonza, Ref DE14-801F) or proliferation medium: DMEM (Life Technologies, Ref 41965), 0.4 % gentamicine, 2 % horse serum (Gbco, Ref16050) was pre-incubated 5 min at 37 °C before the addition of test compounds to a final concentration of 10 μM (1% DMSO maximum). At the defined time points, 50 μl from each tube were removed to another tube containing 450 μl of cold CH3CN+ internal standard (1 μM). After centrifugation (10 min at 10,000 r.p.m.), supernatants are analysed. The degradation half-life (t1/2) values were calculated as t1/2=0.693/k where k is the first-order degradation rate constant. The degradation rate constant (k) was estimated by one-phase exponential decay nonlinear regression analysis of the degradation time course data using Xlfit software (version 2.1.2 or higher) from IDBS.Ltd.

[1] = Stability in human plasma; type: in vitro ADME; details: both sexes, read-out: Plasma stability h (t1/2)
Experimental: as §1

C57BL/6J mice = assay: Oral glucose tolerance test (OGTT) in C57BL/6J mice; type: in vivo, mouse
Experimental: OGTT and IPGTT were performed on 11 to 16 week-old male or female mice (n=4–7 per experimental group). C57BL/6J mice were purchased from Charles River Laboratories (France), Stock no. 000664. C57BL/6J Ide−/− mice were obtained from Guenette[20] and bred in the animal facility of INSERM U1151. WT C57BL/6J mice of the same genetic background were bred in the same animal facility in parallel. NOD Ide−/− mice were generated by backcrossing C57BL/6J Ide−/− mice with NOD wt mice bred in the animal facility of INSERM U1151 and maintained in this facility together with WT NOD mice. Normoglycemic WT and Ide−/− female NOD mice aged 14 weeks were used for OGTTs. Following a 6 h fasting period, a small tail cut was made, basal blood glucose was determined. […] Fifteen minutes later, blood glucose concentrations were measured before and after (up to 120 min, as shown) oral (2 g kg^−1 or 3 g kg^−1, as shown) or intraperitoneal (1.5 g kg^−1) glucose administration. In one series of OGTTs using 3 g kg^−1 glucose and shown in Fig. 5, groups of WT and Ide−/− were inverted between experiments, such that mice initially treated with vehicle were treated 2 days later with 1 and vice versa. Blood glucose levels were determined using an Accu-Check glucometer (Roche Diagnostics). Areas under the curves (AUC) for OGTT and IPGTT were calculated to evaluate glucose tolerance. Plasma insulin concentrations were measured by ELISA (cat. no. 10-1247-01,Mercodia) in blood samples collected 15 min before and 15 and 90 min relative to oral glucose injection. The protocol was approved by the ethical comitee CEEA Paris Descartes (CEEA34).

## O=C(C[C@@H](Cc1ccc2ccccc2c1)n1cc(CNC(=O)c2ccc(F)cc2)nn1)NO [Compound 1]
Recombinant human MMP-1
  pIC50: 5.00
Stability in rat plasma
  half-life at 10 μM: 13.3 h
[1]
  half-life at 10 μM: > 24 h
C57BL/6J mice; 50 mg kg^−1 ip, 3 g kg^−1 oral glucose 15 min later
  glucose tolerance in OGTT, WT C57BL/6J: Impairs glucose tolerance in OGTT; also recorded: acute glucose intolerance
C57BL/6J mice; 50 mg kg^−1 ip, Ide−/− mice
  glucose tolerance in OGTT, Ide−/− C57BL/6J: did not develop glucose intolerance
  plasma insulin concentrations in OGTT, Ide−/− C57BL/6J: no effect
C57BL/6J mice; 50 mg kg^−1 ip, oral glucose 2 g kg^−1
  plasma glucose after oral glucose administration (OGTT compared with IPGTT): significantly increased
C57BL/6J mice; baseline, 15 and 90 min after glucose load
  plasma insulin levels in OGTT versus vehicle, WT C57BL/6J: similar
